Data taken from ChEMBL document CHEMBL4680313 (Bioorg Med Chem, 2021).
Where “and” joins values, the source holds several entries; their conditions need not be identical. Equal entries are not always repeated.

What was measured:
D(3) dopamine receptor [1] = target: T1, D(3) dopamine receptor (Homo sapiens, UniProt P35462)
[2] = target: T2, 5-hydroxytryptamine receptor 2C (Homo sapiens, UniProt P28335)
T2 sequence (P28335 whole entry): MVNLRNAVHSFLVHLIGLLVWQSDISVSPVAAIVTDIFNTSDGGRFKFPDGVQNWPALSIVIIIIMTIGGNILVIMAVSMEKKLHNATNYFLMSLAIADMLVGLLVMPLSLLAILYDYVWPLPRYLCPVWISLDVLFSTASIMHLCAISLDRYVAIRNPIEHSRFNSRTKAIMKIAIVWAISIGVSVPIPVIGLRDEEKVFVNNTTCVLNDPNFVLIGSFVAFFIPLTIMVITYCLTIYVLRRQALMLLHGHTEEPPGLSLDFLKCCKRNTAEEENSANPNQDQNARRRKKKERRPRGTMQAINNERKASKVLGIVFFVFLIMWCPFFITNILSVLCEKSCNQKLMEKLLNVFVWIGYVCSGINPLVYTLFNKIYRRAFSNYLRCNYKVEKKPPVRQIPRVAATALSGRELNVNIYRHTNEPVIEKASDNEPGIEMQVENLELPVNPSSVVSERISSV

[3] = target: T3, 5-hydroxytryptamine receptor 2A (Homo sapiens, UniProt P28223)
D(2) dopamine receptor [4] = target: T4, D(2) dopamine receptor (Homo sapiens, UniProt P14416)
D(4) dopamine receptor = target: T5, D(4) dopamine receptor (Homo sapiens, UniProt P21917)
T5 sequence (P21917 whole entry): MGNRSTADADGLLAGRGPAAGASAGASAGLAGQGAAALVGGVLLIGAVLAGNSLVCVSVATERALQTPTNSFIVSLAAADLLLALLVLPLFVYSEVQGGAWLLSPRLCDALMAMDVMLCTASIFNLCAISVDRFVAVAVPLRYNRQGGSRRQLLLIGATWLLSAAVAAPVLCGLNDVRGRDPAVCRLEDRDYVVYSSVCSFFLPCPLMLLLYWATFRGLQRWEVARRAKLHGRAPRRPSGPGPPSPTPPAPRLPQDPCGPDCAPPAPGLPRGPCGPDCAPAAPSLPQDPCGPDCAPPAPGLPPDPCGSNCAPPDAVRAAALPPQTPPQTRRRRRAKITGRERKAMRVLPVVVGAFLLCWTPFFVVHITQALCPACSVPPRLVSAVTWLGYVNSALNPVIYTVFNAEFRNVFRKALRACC

[5] = target: Sodium-dependent serotonin transporter (Homo sapiens, UniProt P31645)
[6] = target: T6, 5-hydroxytryptamine receptor 1A (Homo sapiens, UniProt P08908)
T6 sequence (P08908 whole entry): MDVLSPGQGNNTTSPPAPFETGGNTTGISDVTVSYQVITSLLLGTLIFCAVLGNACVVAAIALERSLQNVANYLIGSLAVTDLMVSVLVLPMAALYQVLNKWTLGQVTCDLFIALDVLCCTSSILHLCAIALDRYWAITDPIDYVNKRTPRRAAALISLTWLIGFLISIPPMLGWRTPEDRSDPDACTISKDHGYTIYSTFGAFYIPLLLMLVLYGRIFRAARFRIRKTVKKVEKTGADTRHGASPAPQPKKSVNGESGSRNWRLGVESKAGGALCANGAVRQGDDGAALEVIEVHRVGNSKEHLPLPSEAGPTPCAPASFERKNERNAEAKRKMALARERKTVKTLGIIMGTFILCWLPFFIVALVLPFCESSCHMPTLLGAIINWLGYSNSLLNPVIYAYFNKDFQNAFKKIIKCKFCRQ

[7] = target: T7, 5-hydroxytryptamine receptor 7 (Homo sapiens, UniProt P34969)
[8] = target: T8, 5-hydroxytryptamine receptor 2C (Homo sapiens) (UniProt P28335); test: Displacement of [3H]-mesulergine from human 5HT2C receptor at 10 uM by liquid scintillation counting
T8 sequence (whole entry): T2 sequence (P28335 whole entry)

[9] = target: T7, 5-hydroxytryptamine receptor 7; test: Displacement of [3H]-LSD from human 5HT7 receptor at 10 uM by liquid scintillation counting
D(3) dopamine receptor [10] = target: T1, D(3) dopamine receptor; test: Displacement of [3H]-N-methylspiperone from human dopamine D3 receptor at 10 uM by liquid scintillation counting
D(2) dopamine receptor [11] = target: T4, D(2) dopamine receptor; test: Displacement of [3H]-N-methylspiperone from human dopamine D2 receptor at 10 uM by liquid scintillation counting
[12] = target: T9, 5-hydroxytryptamine receptor 1A (Homo sapiens) (UniProt P08908); test: Displacement of [3H]-8-OH-DPAT from human 5HT1A receptor at 10 uM by liquid scintillation counting
T9 sequence (whole entry): T6 sequence (P08908 whole entry)

[13] = target: T3, 5-hydroxytryptamine receptor 2A; test: Displacement of [3H]-mesulergine from human 5HT2A receptor at 10 uM by liquid scintillation counting

T3 sequence (P28223 whole entry): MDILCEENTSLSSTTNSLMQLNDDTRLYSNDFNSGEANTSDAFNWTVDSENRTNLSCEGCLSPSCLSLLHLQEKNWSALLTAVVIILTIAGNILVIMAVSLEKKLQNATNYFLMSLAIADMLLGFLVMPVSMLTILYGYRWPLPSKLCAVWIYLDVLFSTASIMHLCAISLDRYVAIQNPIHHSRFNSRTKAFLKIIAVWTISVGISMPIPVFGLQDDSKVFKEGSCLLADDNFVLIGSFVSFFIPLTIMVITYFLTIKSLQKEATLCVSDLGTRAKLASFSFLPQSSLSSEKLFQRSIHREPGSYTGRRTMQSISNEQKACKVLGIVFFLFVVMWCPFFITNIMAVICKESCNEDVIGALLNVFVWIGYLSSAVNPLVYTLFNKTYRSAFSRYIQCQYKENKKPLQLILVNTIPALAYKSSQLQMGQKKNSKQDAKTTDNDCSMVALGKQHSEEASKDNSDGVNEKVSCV
T1 sequence (P35462 whole entry): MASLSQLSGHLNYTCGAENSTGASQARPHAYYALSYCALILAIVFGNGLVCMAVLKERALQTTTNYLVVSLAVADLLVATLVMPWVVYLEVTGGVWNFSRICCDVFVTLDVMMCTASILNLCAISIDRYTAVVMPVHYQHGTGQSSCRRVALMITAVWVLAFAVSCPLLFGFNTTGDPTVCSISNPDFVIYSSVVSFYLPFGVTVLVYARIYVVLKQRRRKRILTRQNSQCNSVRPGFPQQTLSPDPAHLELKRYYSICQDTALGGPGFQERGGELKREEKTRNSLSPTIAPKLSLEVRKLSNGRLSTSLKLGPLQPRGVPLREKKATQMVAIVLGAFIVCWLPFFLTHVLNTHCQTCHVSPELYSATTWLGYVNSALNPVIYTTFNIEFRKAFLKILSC
T4 sequence (P14416 whole entry): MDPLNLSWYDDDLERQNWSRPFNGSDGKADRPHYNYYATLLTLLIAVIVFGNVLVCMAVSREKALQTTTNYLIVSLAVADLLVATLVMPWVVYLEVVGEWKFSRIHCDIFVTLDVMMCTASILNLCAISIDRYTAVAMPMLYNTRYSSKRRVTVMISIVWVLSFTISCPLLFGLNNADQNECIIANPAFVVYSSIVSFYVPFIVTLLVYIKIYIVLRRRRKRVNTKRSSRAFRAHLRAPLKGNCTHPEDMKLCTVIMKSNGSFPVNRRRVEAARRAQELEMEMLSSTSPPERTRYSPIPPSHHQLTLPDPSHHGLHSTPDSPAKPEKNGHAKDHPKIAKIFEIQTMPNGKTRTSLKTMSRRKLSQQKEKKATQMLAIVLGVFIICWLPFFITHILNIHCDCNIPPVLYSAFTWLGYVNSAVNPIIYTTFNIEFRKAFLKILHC
Sodium-dependent serotonin transporter, sequence (P31645 whole entry): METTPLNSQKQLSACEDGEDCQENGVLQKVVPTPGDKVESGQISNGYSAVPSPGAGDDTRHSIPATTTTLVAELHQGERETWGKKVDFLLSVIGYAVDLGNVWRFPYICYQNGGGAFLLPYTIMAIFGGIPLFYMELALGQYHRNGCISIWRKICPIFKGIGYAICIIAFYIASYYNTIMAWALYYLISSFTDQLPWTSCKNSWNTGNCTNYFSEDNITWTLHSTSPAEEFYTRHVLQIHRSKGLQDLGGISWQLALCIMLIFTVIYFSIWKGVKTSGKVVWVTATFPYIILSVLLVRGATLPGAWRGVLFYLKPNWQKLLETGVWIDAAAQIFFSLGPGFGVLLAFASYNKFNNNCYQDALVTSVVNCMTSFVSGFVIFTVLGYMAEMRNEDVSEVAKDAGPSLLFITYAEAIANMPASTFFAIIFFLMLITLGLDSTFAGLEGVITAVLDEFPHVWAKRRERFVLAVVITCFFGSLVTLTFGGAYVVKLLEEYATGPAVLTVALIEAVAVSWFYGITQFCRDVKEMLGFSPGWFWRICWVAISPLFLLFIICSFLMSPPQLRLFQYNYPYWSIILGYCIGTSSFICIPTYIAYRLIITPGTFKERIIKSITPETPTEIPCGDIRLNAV
T7 sequence (P34969 whole entry): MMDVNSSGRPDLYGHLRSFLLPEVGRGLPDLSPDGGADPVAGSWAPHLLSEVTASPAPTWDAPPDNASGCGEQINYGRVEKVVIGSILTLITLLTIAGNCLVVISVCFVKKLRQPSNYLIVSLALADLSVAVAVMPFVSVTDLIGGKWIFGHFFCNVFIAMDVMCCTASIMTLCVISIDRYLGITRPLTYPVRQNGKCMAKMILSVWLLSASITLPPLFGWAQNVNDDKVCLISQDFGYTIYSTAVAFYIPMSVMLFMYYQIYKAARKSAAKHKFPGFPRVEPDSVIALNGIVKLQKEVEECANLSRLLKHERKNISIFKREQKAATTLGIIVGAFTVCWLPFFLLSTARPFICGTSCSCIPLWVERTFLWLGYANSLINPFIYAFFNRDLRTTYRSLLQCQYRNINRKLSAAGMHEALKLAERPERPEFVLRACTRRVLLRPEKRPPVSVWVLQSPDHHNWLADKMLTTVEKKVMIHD

inhibition [9] [%] | inhibition (D(3) dopamine receptor [10]) [%] | inhibition [12] [%] | inhibition [13] [%] | SMILES | Ki (D(3) dopamine receptor [1]) [nM] | Ki [2] [nM] | Ki [3] [nM] | Ki (D(2) dopamine receptor [4]) [nM] | Ki (D(4) dopamine receptor) [nM] | Ki [5] | Ki [6] | Ki [7] | inhibition [8] [%] | inhibition (D(2) dopamine receptor [11]) [%]
 |  |  |  | Fc1ccc2c(c1)CC(CCN1CCCN(c3ccccn3)CC1)C2 (stereo not drawn) | 774 | 963 | 43 | 599 | 104 | 64 nM | 615 nM and 589 nM | 267 nM |  | 
 |  |  |  | Fc1ccc(CCCCN2CCN(c3ccccn3)CC2)cc1 |  |  |  |  |  |  |  |  | 50 | 
 |  |  |  | O=C1c2ccc(F)cc2CC1CCN1CCCN(c2ccc(Cl)cc2)CC1 (stereo not drawn) |  |  |  |  |  | 24 nM |  | 72 nM |  | 
50 | 50 | 50 | 50 | Fc1ccc(CCCCN2CCN(c3ccncc3)CC2)cc1 |  |  |  |  | 2050 |  |  |  | 50 | 50
 |  |  |  | Fc1ccc(CCCCN2CCN(c3cccnc3)CC2)cc1 |  |  | 338 |  | 16 |  | 18 nM | 267 nM | 50 | 50
 |  |  |  | Fc1ccc(CCCCN2CCN(c3ccc(-c4ccccc4)cn3)CC2)cc1 | 2090 | > 10000 | 147 | > 10000 | 2260 | 2670 nM | 1460 nM | > 10000 nM |  | 
 |  |  |  | O=C(CCCN1CCN(c2cccnc2)CC1)c1ccc(F)cc1 | 140 |  | 305 | 1170 | 30 |  | 97 nM | 147 nM and 135 nM | 50 | 
 |  |  |  | O=C(CCCN1CCCN(c2ccccn2)CC1)c1ccc(F)cc1 | 3450 | 337 | 1.2 | 181 | 257 |  | 1960 nM and 1910 nM | 569 nM and 1550 nM |  | 
 |  |  |  | Cc1ccc(N2CCN(CCCCc3ccc(F)cc3)CC2)nc1 |  | 1610 |  |  |  | 2990 nM | 92 nM | 60 nM |  | 
 |  |  |  | Fc1ccc(CCCCN2C3CCC2CN(c2ccc(Cl)cn2)C3)cc1 | 840 |  | 94 |  | 44 | 158 nM | 94.2 nM | 339 nM | 50 | 50
 |  |  |  | Fc1ccc(CCCCN2CCN(c3cccc(-c4ccccc4)n3)CC2)cc1 | 58 | 2960 | 261 | 641 | 84 | > 10000 nM | 155 nM | 160 nM |  | 
 |  |  |  | O=C1c2ccc(F)cc2CC1CCN1CCCN(c2ccc(Cl)cn2)CC1 (stereo not drawn) | 125 | 355 | 13 | 364 | 36 | 24 nM | 209 nM | 58 nM |  | 
 |  |  |  | O=C(CCCN1C2CCC1CN(c1ccc(Cl)cn1)C2)c1ccc(F)cc1 | 1010 | 1360 | 51 | 1250 | 119 | 241 nM | 78 nM | 335 nM |  | 
 |  |  |  | O=C1c2ccc(F)cc2CC1CCN1CCCN(c2ccccn2)CC1 (stereo not drawn) | 2290 |  | 59 | 649 | 191 | 949 nM and 933 nM | 886 nM | 58 nM | 50 | 
 |  |  |  | O=C(CCCN1CCCN(c2ccc(Cl)cn2)CC1)c1ccc(F)cc1 | 26 | 392 | 8.9 | 41 | 37 | 37 nM | 259 nM | 214 nM |  | 
